# Values joined by “and” are separate entries in the source; they are usually repeats but may differ in a detail not shown here. Equal entries are not always repeated. Toxic doses and inconclusive results are not listed.
# System: BDF1 mice, P388 leukemia ip, median survival T/C
# Assay: NCI In Vivo Anticancer Drug Screen. Data for tumor model P388 Leukemia (intraperitoneal) in B6D2F1 (BDF1) mice
# Conditions: endpoint: median survival time, higher = longer survival
# How it was run: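 Survival ratio, drug arm over vehicle arm, in mice with a transplanted tumour.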
# [1] = dose: 100.0 mg/kg/injection, schedule: Q04DX003 (ip), vehicle: saline with Tween-80
# [2] = dose: 200.0 mg/kg/injection, schedule: Q04DX003 (ip), vehicle: saline with Tween-80
# [3] = dose: 25.0 mg/kg/injection, schedule: Q01DX009 (ip), vehicle: saline with Tween-80
# [4] = dose: 50.0 mg/kg/injection, schedule: Q01DX009 (ip), vehicle: saline with Tween-80
# [5] = dose: 100.0 mg/kg/injection, schedule: Q01DX009 (ip), vehicle: saline with Tween-80
# [6] = dose: 100.0 mg/kg/injection, schedule: Q04DX003 (ip), vehicle: Klucel (hydroxypropylcellulose) (HPC)
# [7] = dose: 200.0 mg/kg/injection, schedule: Q04DX003 (ip), vehicle: Klucel (hydroxypropylcellulose) (HPC)
# [8] = dose: 400.0 mg/kg/injection, schedule: Q04DX003 (ip), vehicle: Klucel (hydroxypropylcellulose) (HPC)
# [9] = dose: 25.0 mg/kg/injection, schedule: Q01DX009 (ip), vehicle: Klucel (hydroxypropylcellulose) (HPC)
# [10] = dose: 50.0 mg/kg/injection, schedule: Q01DX009 (ip), vehicle: Klucel (hydroxypropylcellulose) (HPC)
# [11] = dose: 100.0 mg/kg/injection, schedule: Q01DX009 (ip), vehicle: Klucel (hydroxypropylcellulose) (HPC)
# [12] = dose: 200.0 mg/kg/injection, schedule: Q01DX009 (ip), vehicle: Klucel (hydroxypropylcellulose) (HPC)
# [13] = dose: 200.0 mg/kg/injection, schedule: Q01DX009 (ip), vehicle: saline with Tween-80
# [14] = dose: 400.0 mg/kg/injection, schedule: Q01DX009 (ip), vehicle: saline with Tween-80
# [15] = dose: 12.5 mg/kg/injection, schedule: Q01DX009 (ip), vehicle: saline
# [16] = dose: 25.0 mg/kg/injection, schedule: Q01DX009 (ip), vehicle: saline
structure (smiles),measurement,setting,value
C=CCOc1ccccn1,T/C,"dose: 50.0 mg/kg/injection, schedule: Q04DX003 (ip), vehicle: saline with Tween-80",90 % of control
same,T/C,[1],104 % of control
same,T/C,[2],113 % of control
COc1cc2c(cc1O)CCCCC2=O,T/C,[3],109 % of control
same,T/C,[4],104 % of control
same,T/C,[5],104 % of control
same,T/C,[6],110 % of control
same,T/C,[7],95 % of control
same,T/C,[8],90 % of control
COc1c2c(cc3oc4ccccc4c(=O)c13)CCCC2,T/C,"dose: 50.0 mg/kg/injection, schedule: Q01DX005 (ip), vehicle: saline with Tween-80",100 % of control
same,T/C,"dose: 100.0 mg/kg/injection, schedule: Q01DX005 (ip), vehicle: saline with Tween-80",96 % of control
same,T/C,"dose: 200.0 mg/kg/injection, schedule: Q01DX005 (ip), vehicle: saline with Tween-80",87 % of control
c1ccc2c(Nc3ccc(C4=NCCN4)cc3)nnc(Nc3ccc(C4=NCCN4)cc3)c2c1,T/C,"dose: 19.0 mg/kg/injection, schedule: Q04DX003 (ip), vehicle: saline with Tween-80",119 % of control
same,T/C,"dose: 29.0 mg/kg/injection, schedule: Q04DX003 (ip), vehicle: saline with Tween-80",115 % of control
same,T/C,"dose: 44.0 mg/kg/injection, schedule: Q04DX003 (ip), vehicle: saline with Tween-80",119 % of control
same,T/C,"dose: 66.0 mg/kg/injection, schedule: Q04DX003 (ip), vehicle: saline with Tween-80",154 % of control and 168 % of control
same,T/C,[1],163 % of control
same,T/C,"dose: 150.0 mg/kg/injection, schedule: Q04DX003 (ip), vehicle: saline with Tween-80",195 % of control
O=c1oc2ccccc2c2c1C(c1ccc3c(c1)OCO3)C=C(c1ccc3c(c1)OCO3)O2 (stereo not given),T/C,"dose: 12.5 mg/kg/injection, schedule: Q01DX009 (ip), vehicle: water",97 % of control
same,T/C,"dose: 25.0 mg/kg/injection, schedule: Q01DX009 (ip), vehicle: water",104 % of control
same,T/C,"dose: 25.0 mg/kg/injection, schedule: Q04DX003 (ip), vehicle: water",113 % of control
same,T/C,"dose: 50.0 mg/kg/injection, schedule: Q01DX009 (ip), vehicle: water",101 % of control and 104 % of control
same,T/C,"dose: 50.0 mg/kg/injection, schedule: Q04DX003 (ip), vehicle: water",116 % of control
same,T/C,"dose: 100.0 mg/kg/injection, schedule: Q01DX009 (ip), vehicle: water",95 % of control
same,T/C,"dose: 100.0 mg/kg/injection, schedule: Q04DX003 (ip), vehicle: water",103 % of control
same,T/C,"dose: 200.0 mg/kg/injection, schedule: Q01DX009 (ip), vehicle: water",108 % of control and 123 % of control
same,T/C,"dose: 200.0 mg/kg/injection, schedule: Q04DX003 (ip), vehicle: water",102 % of control and 111 % of control
same,T/C,"dose: 300.0 mg/kg/injection, schedule: Q01DX009 (ip), vehicle: water",101 % of control
same,T/C,"dose: 300.0 mg/kg/injection, schedule: Q04DX003 (ip), vehicle: water",102 % of control
same,T/C,"dose: 400.0 mg/kg/injection, schedule: Q01DX009 (ip), vehicle: water",101 % of control
same,T/C,"dose: 400.0 mg/kg/injection, schedule: Q04DX003 (ip), vehicle: water",119 % of control and 120 % of control
same,T/C,"dose: 500.0 mg/kg/injection, schedule: Q01DX009 (ip), vehicle: water",118 % of control
O=[N+]([O-])c1[nH]cnc1Br,T/C,[9],93 % of control
same,T/C,[10],96 % of control
same,T/C,[11],96 % of control
same,T/C,[12],86 % of control
CCOC(=O)C(C)C(OCC)OCC (stereo not given),T/C,[5],95 % of control
same,T/C,[1],100 % of control
same,T/C,[13],109 % of control
same,T/C,[2],91 % of control
same,T/C,[14],109 % of control
same,T/C,"dose: 400.0 mg/kg/injection, schedule: Q04DX003 (ip), vehicle: saline with Tween-80",100 % of control
CCCCCCCCCCCCCCCCOc1ccccn1,T/C,[9],91 % of control
same,T/C,[10],95 % of control
same,T/C,[11],95 % of control
same,T/C,[6],100 % of control
same,T/C,[7],104 % of control
same,T/C,[8],122 % of control
SC1(S)CN2CCC1CC2,T/C,"dose: 6.25 mg/kg/injection, schedule: Q04DX003 (ip), vehicle: saline",105 % of control
same,T/C,"dose: 12.5 mg/kg/injection, schedule: Q04DX003 (ip), vehicle: saline",105 % of control
same,T/C,"dose: 25.0 mg/kg/injection, schedule: Q04DX003 (ip), vehicle: saline",105 % of control
CC1(C)C2CC3C(C(=O)O)CCCC3(C2)C1Br (stereo not given),T/C,[6],90 % of control
same,T/C,[7],100 % of control
same,T/C,[8],95 % of control
NCCc1c[nH]c2ccc(F)cc12,T/C,[15],91 % of control
same,T/C,[16],98 % of control
same,T/C,"dose: 50.0 mg/kg/injection, schedule: Q01DX009 (ip), vehicle: saline",98 % of control
same,T/C,"dose: 100.0 mg/kg/injection, schedule: Q01DX009 (ip), vehicle: saline",91 % of control
O=C1c2cccnc2C(=O)c2c(O)ccc(O)c21,T/C,[3],97 % of control
same,T/C,[4],99 % of control
same,T/C,[5],92 % of control
same,T/C,[13],115 % of control
Nc1nc(=O)n(C2CC(O)C(CO)O2)cc1Br (stereo not given),T/C,[5],109 % of control
same,T/C,[13],90 % of control
same,T/C,[14],100 % of control
Cc1c(C)c(N)c(C)c(C)c1N,T/C,"dose: 3.0 mg/kg/injection, schedule: Q01DX009 (ip), vehicle: Klucel (hydroxypropylcellulose) (HPC)",91 % of control
same,T/C,"dose: 3.0 mg/kg/injection, schedule: Q04DX003 (ip), vehicle: Klucel (hydroxypropylcellulose) (HPC)",108 % of control
same,T/C,"dose: 6.0 mg/kg/injection, schedule: Q01DX009 (ip), vehicle: Klucel (hydroxypropylcellulose) (HPC)",87 % of control
same,T/C,"dose: 6.0 mg/kg/injection, schedule: Q04DX003 (ip), vehicle: Klucel (hydroxypropylcellulose) (HPC)",100 % of control
same,T/C,"dose: 12.0 mg/kg/injection, schedule: Q01DX009 (ip), vehicle: Klucel (hydroxypropylcellulose) (HPC)",95 % of control
same,T/C,"dose: 12.0 mg/kg/injection, schedule: Q04DX003 (ip), vehicle: Klucel (hydroxypropylcellulose) (HPC)",91 % of control
CCCC1CCC(=C2C(=O)CCC2=O)O1 (stereo not given),T/C,"dose: 3.13 mg/kg/injection, schedule: Q01DX009 (ip), vehicle: saline",119 % of control
same,T/C,"dose: 6.25 mg/kg/injection, schedule: Q01DX009 (ip), vehicle: saline",119 % of control
same,T/C,[15],119 % of control
same,T/C,[16],119 % of control
same,T/C,"dose: 25.0 mg/kg/injection, schedule: Q04DX002 (ip), vehicle: saline with Tween-80",113 % of control
same,T/C,"dose: 25.0 mg/kg/injection, schedule: Q04DX002 (ip), vehicle: saline",107 % of control
same,T/C,"dose: 50.0 mg/kg/injection, schedule: Q04DX002 (ip), vehicle: saline with Tween-80",103 % of control
same,T/C,"dose: 50.0 mg/kg/injection, schedule: Q04DX002 (ip), vehicle: saline",100 % of control
same,T/C,"dose: 100.0 mg/kg/injection, schedule: Q04DX002 (ip), vehicle: saline with Tween-80",120 % of control
same,T/C,"dose: 200.0 mg/kg/injection, schedule: Q04DX002 (ip), vehicle: saline",105 % of control
CCCC[S+](CCCC)CC(=O)c1ccc(-c2ccccc2)cc1,T/C,"dose: 1.56 mg/kg/injection, schedule: Q01DX009 (ip), vehicle: saline with Tween-80",105 % of control
same,T/C,"dose: 3.13 mg/kg/injection, schedule: Q01DX009 (ip), vehicle: saline with Tween-80",100 % of control
same,T/C,"dose: 6.25 mg/kg/injection, schedule: Q01DX009 (ip), vehicle: saline with Tween-80",106 % of control
same,T/C,"dose: 12.5 mg/kg/injection, schedule: Q01DX009 (ip), vehicle: saline with Tween-80",107 % of control
same,T/C,[3],113 % of control
O=C1c2ccccc2S(=O)(=O)N1CCN1C(=O)c2ccccc2S1(=O)=O,T/C,[11],100 % of control
same,T/C,[6],95 % of control
same,T/C,[12],100 % of control
same,T/C,[7],100 % of control
same,T/C,"dose: 400.0 mg/kg/injection, schedule: Q01DX009 (ip), vehicle: Klucel (hydroxypropylcellulose) (HPC)",90 % of control
same,T/C,[8],100 % of control
COC(=O)C(C)CN1CC(C)OC(C)C1 (stereo not given),T/C,"dose: 100.0 mg/kg/injection, schedule: Q04DX003 (ip), vehicle: saline",113 % of control
same,T/C,"dose: 200.0 mg/kg/injection, schedule: Q04DX003 (ip), vehicle: saline",100 % of control
same,T/C,"dose: 400.0 mg/kg/injection, schedule: Q04DX003 (ip), vehicle: saline",100 % of control
